Reference: PubChem BioAssay (NCI)
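Test compounds were applied to cells in 96-well plates for 48 hours at 5 doses. GI50 marks 50% less growth. The concentration for full growth arrest is given as TGI.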

Experiments:
Experiment in all cases: growth of human tumour cells (NCI), 48 h
TK-10 renal = test system: TK-10 renal
K-562 leukemia = test system: K-562 leukemia
SW-620 colon = test system: SW-620 colon
OVCAR-4 ovarian = test system: OVCAR-4 ovarian
HCC-2998 colon = test system: HCC-2998 colon
SF-295 CNS = test system: SF-295 CNS
MDA-MB-231 breast = test system: MDA-MB-231 breast
SN12C renal = test system: SN12C renal
CAKI-1 renal = test system: CAKI-1 renal
UACC-257 melanoma = test system: UACC-257 melanoma
KM12 colon = test system: KM12 colon
OVCAR-8 ovarian = test system: OVCAR-8 ovarian
U251 CNS = test system: U251 CNS
OVCAR-5 ovarian = test system: OVCAR-5 ovarian
A549 NSCLC = test system: A549 NSCLC
786-0 renal = test system: 786-0 renal
HS 578T breast = test system: HS 578T breast
SF-539 CNS = test system: SF-539 CNS
MALME-3M melanoma = test system: MALME-3M melanoma
M14 melanoma = test system: M14 melanoma
RPMI-8226 leukemia = test system: RPMI-8226 leukemia
IGROV1 ovarian = test system: IGROV1 ovarian
HT29 colon = test system: HT29 colon
HCT-15 colon = test system: HCT-15 colon
MDA-MB-435 = test system: MDA-MB-435
MOLT-4 leukemia = test system: MOLT-4 leukemia
UACC-62 melanoma = test system: UACC-62 melanoma
NCI/ADR-RES ovarian = test system: NCI/ADR-RES ovarian
LOX IMVI melanoma = test system: LOX IMVI melanoma
HOP-92 NSCLC = test system: HOP-92 NSCLC
UO-31 renal = test system: UO-31 renal
HCT-116 colon = test system: HCT-116 colon
SNB-19 CNS = test system: SNB-19 CNS
EKVX NSCLC = test system: EKVX NSCLC
SK-MEL-5 melanoma = test system: SK-MEL-5 melanoma
NCI-H23 lung = test system: NCI-H23 lung
SR leukemia = test system: SR leukemia
DU-145 prostate = test system: DU-145 prostate
BT-549 breast = test system: BT-549 breast
T-47D breast = test system: T-47D breast
HL-60(TB) leukemia = test system: HL-60(TB) leukemia
NCI-H460 lung = test system: NCI-H460 lung
SK-MEL-28 melanoma = test system: SK-MEL-28 melanoma
PC-3 prostate = test system: PC-3 prostate
ACHN renal = test system: ACHN renal
NCI-H226 lung = test system: NCI-H226 lung
NCI-H522 lung = test system: NCI-H522 lung
CCRF-CEM leukemia = test system: CCRF-CEM leukemia
HOP-62 NSCLC = test system: HOP-62 NSCLC
RXF 393 renal = test system: RXF 393 renal
SNB-75 CNS = test system: SNB-75 CNS
SF-268 CNS = test system: SF-268 CNS
OVCAR-3 ovarian = test system: OVCAR-3 ovarian
COLO 205 colon = test system: COLO 205 colon
SK-OV-3 ovarian = test system: SK-OV-3 ovarian
SK-MEL-2 melanoma = test system: SK-MEL-2 melanoma

S=C(Nc1ccc(Cl)cc1)Nc1ccc(-c2nc3ccccc3s2)cc1
GI50 (TK-10 renal): 15.1 µM | TGI (TK-10 renal): 44.5 µM | GI50 (K-562 leukemia): 7.28 µM | TGI (K-562 leukemia): 47.2 µM | GI50 (SW-620 colon): 17.9 µM | TGI (SW-620 colon): 35.4 µM | GI50 (OVCAR-4 ovarian): 14.4 µM | TGI (OVCAR-4 ovarian): 69.4 µM | GI50 (HCC-2998 colon): 14.7 µM | TGI (HCC-2998 colon): 27.8 µM | GI50 (SF-295 CNS): 16.1 µM | TGI (SF-295 CNS): 40.6 µM | GI50 (MDA-MB-231 breast): 15.3 µM | TGI (MDA-MB-231 breast): 34.3 µM | GI50 (SN12C renal): 15.4 µM | TGI (SN12C renal): 35 µM | GI50 (CAKI-1 renal): 10.8 µM | TGI (CAKI-1 renal): 28 µM | GI50 (UACC-257 melanoma): 20.3 µM | TGI (UACC-257 melanoma): 44.9 µM | GI50 (KM12 colon): 15 µM | TGI (KM12 colon): 49.1 µM | GI50 (OVCAR-8 ovarian): 17.9 µM | TGI (OVCAR-8 ovarian): 41.7 µM | GI50 (U251 CNS): 19 µM | TGI (U251 CNS): > 100 µM | GI50 (OVCAR-5 ovarian): 20.8 µM | TGI (OVCAR-5 ovarian): 44 µM | GI50 (A549 NSCLC): 14.9 µM | TGI (A549 NSCLC): 32.2 µM | GI50 (786-0 renal): 16.3 µM | TGI (786-0 renal): 30.2 µM | GI50 (HS 578T breast): 16.4 µM | TGI (HS 578T breast): 39.2 µM | GI50 (SF-539 CNS): 17.5 µM | TGI (SF-539 CNS): 34 µM | GI50 (MALME-3M melanoma): 15.6 µM | TGI (MALME-3M melanoma): 46.4 µM | GI50 (M14 melanoma): 14.3 µM | TGI (M14 melanoma): 28 µM | GI50 (RPMI-8226 leukemia): 20.9 µM | TGI (RPMI-8226 leukemia): 64.5 µM | GI50 (IGROV1 ovarian): 16.8 µM | TGI (IGROV1 ovarian): 37.9 µM | GI50 (HT29 colon): 17.2 µM | TGI (HT29 colon): 39.2 µM | GI50 (HCT-15 colon): 23.5 µM | TGI (HCT-15 colon): > 100 µM | GI50 (MDA-MB-435): 13.4 µM | TGI (MDA-MB-435): 29.8 µM | TGI (MOLT-4 leukemia): > 100 µM | GI50 (UACC-62 melanoma): 10.4 µM | TGI (UACC-62 melanoma): 24.8 µM | GI50 (NCI/ADR-RES ovarian): 17.5 µM | TGI (NCI/ADR-RES ovarian): 36.6 µM | GI50 (LOX IMVI melanoma): 24.3 µM | TGI (LOX IMVI melanoma): > 100 µM | GI50 (HOP-92 NSCLC): 17.2 µM | TGI (HOP-92 NSCLC): 45.5 µM | GI50 (UO-31 renal): 11.8 µM | TGI (UO-31 renal): 25.2 µM | GI50 (HCT-116 colon): 13.5 µM | TGI (HCT-116 colon): 26.3 µM | GI50 (SNB-19 CNS): 19 µM | TGI (SNB-19 CNS): 69.6 µM | GI50 (EKVX NSCLC): 15.1 µM | TGI (EKVX NSCLC): 42.9 µM | GI50 (SK-MEL-5 melanoma): 11 µM | TGI (SK-MEL-5 melanoma): 22.9 µM | GI50 (NCI-H23 lung): 14.1 µM | TGI (NCI-H23 lung): 27.3 µM | GI50 (SR leukemia): 4.47 µM | TGI (SR leukemia): 27.4 µM | GI50 (DU-145 prostate): 13.6 µM | TGI (DU-145 prostate): 30 µM | GI50 (BT-549 breast): 26.3 µM | TGI (BT-549 breast): 61.5 µM | GI50 (T-47D breast): 5.19 µM | TGI (T-47D breast): 38.9 µM | GI50 (HL-60(TB) leukemia): 8.22 µM | TGI (HL-60(TB) leukemia): > 100 µM | GI50 (NCI-H460 lung): 13.9 µM | TGI (NCI-H460 lung): 33.4 µM | GI50 (SK-MEL-28 melanoma): 19.1 µM | TGI (SK-MEL-28 melanoma): 44.2 µM | GI50 (PC-3 prostate): 14.3 µM | TGI (PC-3 prostate): 54.9 µM | GI50 (ACHN renal): 15.4 µM | TGI (ACHN renal): 45.4 µM | GI50 (NCI-H226 lung): 17.9 µM | TGI (NCI-H226 lung): 47.4 µM | GI50 (NCI-H522 lung): 5.61 µM | TGI (NCI-H522 lung): 19.6 µM | GI50 (CCRF-CEM leukemia): 15.6 µM | TGI (CCRF-CEM leukemia): 54.8 µM | GI50 (HOP-62 NSCLC): 20.1 µM | TGI (HOP-62 NSCLC): 41 µM | GI50 (RXF 393 renal): 16.6 µM | TGI (RXF 393 renal): 37.1 µM | GI50 (SNB-75 CNS): 13.8 µM | TGI (SNB-75 CNS): 35.5 µM | GI50 (SF-268 CNS): 13.8 µM | TGI (SF-268 CNS): 32 µM | GI50 (OVCAR-3 ovarian): 9.93 µM | TGI (OVCAR-3 ovarian): 34.1 µM | GI50 (COLO 205 colon): 18.7 µM | TGI (COLO 205 colon): 53.7 µM | GI50 (SK-OV-3 ovarian): 24.9 µM | TGI (SK-OV-3 ovarian): 63.1 µM | GI50 (SK-MEL-2 melanoma): 21 µM | TGI (SK-MEL-2 melanoma): 40.2 µM

COc1cc(/C=C/C(=O)c2ccc(O)c(OC)c2)ccc1O
TGI (TK-10 renal): 87.9 µM | TGI (OVCAR-4 ovarian): 71.4 µM | TGI (SF-295 CNS): 49 µM | TGI (MDA-MB-231 breast): 79.4 µM | TGI (UACC-257 melanoma): 45.9 µM | TGI (OVCAR-5 ovarian): 50.8 µM | TGI (HS 578T breast): 60.3 µM | TGI (MALME-3M melanoma): 51.4 µM | TGI (HOP-92 NSCLC): 50.7 µM | TGI (EKVX NSCLC): 41.6 µM | TGI (T-47D breast): 58.7 µM | TGI (SK-MEL-28 melanoma): 36.5 µM | TGI (NCI-H226 lung): 46.3 µM | TGI (NCI-H522 lung): 32.3 µM | TGI (SNB-75 CNS): 77.5 µM | TGI (OVCAR-3 ovarian): 72 µM | TGI (COLO 205 colon): 41.2 µM | TGI (SK-OV-3 ovarian): 93.4 µM | TGI (SK-MEL-2 melanoma): 42.6 µM
